We go through five molecules from patent publication US11395847B2, “Acylated GLP-1/GLP-2 dual agonists” (Zealand Pharma A/S, priority 2016, dated 2022).

Each structure is given as a SMILES string. Where two headings read alike, the source gives them in different places. Where a SMILES comes first, the peptide text is derived from it.

Series [1] in a line: Chemical stability (RP-HPLC normalized purity after incubation at 40° C.). Format: physicochemical. To be noted: pH 7, 40° C., 14-day incubation, 0.2 mg/ml, normalized purity (area-%). The method, then:
Samples of each test peptide were dissolved in MILLIQ™ water, and the pH of the solution was adjusted to pH 6, 7, 7.5 or 9 using either HCl or NaOH. The final peptide concentration was 0.2 mg/ml. Samples were placed in glass vials and incubated at 40° C. The samples were analyzed by RP-HPLC on a C18 column with gradient elution using an acetonitrile/TFA/water eluent system. The area-percentage (area-%) of the main peak after incubation time T=t (relative to time T=0) was determined by UV spectroscopy at 220 nm.
The purity was first determined as follows: Purity(area-%)=(area of main peak/total area of all peaks)×100.
The purity was then normalized between time points by setting purity at time 0 (T=0) to 100 for each pH value for a given peptide, as follows: Normalized area-% at time t(T=t)=[area-%(T=t)/area-%(T=0)]×100.
The chemical stability assessment results after 14-day incubation (in the form of normalized purity values) are summarized in Table 4.

Series [2] in a line: Solubility assessment (turbidity absorbance at 325 nm). Format: physicochemical. How it is done:
A stock solution of the test peptide (2 mg/ml; determined from the weighed amount of peptide) in demineralized water adjusted to pH 2.5 with HCl was prepared, and aliquots were diluted 1:1 in 100 mM acetate buffer (pH 4.0 and pH 5.0), 100 mM histidine buffer (pH 6.0 and pH 7.0) and 100 mM phosphate buffer (pH 6.0, pH 7.0 and pH 7.5), respectively, and loaded in a standard flat-bottom, non-sterile 96-well UV Microplate. The absorbance of samples (single samples, n=1) at 280 and 325 nm was measured in an absorbance-based plate reader, which was preheated to ambient temperature (typically 25° C.).

As for `CC[C@H](C)[C@H](NC(=O)[C@H](Cc1ccccc1)NC(=O)[C@H](CC(=O)O)NC(=O)[C@H](CCCNC(=N)N)NC(=O)[C@H](C)NC(=O)[C@H](C)NC(=O)[C@H](CCC(N)=O)NC(=O)[C@H](CCCCNC(=O)CC[C@H](NC(=O)CCCCCCCCCCCCCCCCC(=O)O)C(=O)O)NC(=O)[C@H](CC(=O)O)NC(=O)[C@H](CC(C)C)NC(=O)[C@@H](NC(=O)[C@@H](NC(=O)[C@H](C)NC(=O)[C@H](CC(C)C)NC(=O)[C@H](CCC(=O)O)NC(=O)[C@H](CO)NC(=O)[C@@H](NC(=O)[C@H](Cc1ccccc1)NC(=O)[C@H](CO)NC(=O)CNC(=O)[C@H](CCC(=O)O)NC(=O)C(C)(C)NC(=O)[C@@H](N)Cc1c[nH]cn1)[C@@H](C)O)[C@@H](C)O)[C@@H](C)CC)C(=O)N[C@@H](C)C(=O)N[C@@H](Cc1c[nH]c2ccccc12)C(=O)N[C@@H](CC(C)C)C(=O)N[C@H](C(=O)N[C@@H](CC(C)C)C(=O)N[C@@H](Cc1c[nH]cn1)C(=O)N[C@@H](CCCCN)C(=O)N[C@H](C(=O)N[C@H](C(=O)N[C@@H](CC(=O)O)C(=O)O)[C@@H](C)O)[C@@H](C)CC)[C@@H](C)CC` [Compound 28] (HELM PEPTIDE1{H.[Aib].E.G.S.F.T.S.E.L.A.T.I.L.D.K.Q.A.A.R.D.F.I.A.W.L.I.L.H.K.I.T.D}|PEPTIDE2{[O=C(O)CCCCCCCCCCCCCCCCC(=O)[*:2]].[gGlu]}$PEPTIDE1,PEPTIDE2,16:R3-2:R2$$$V2.0), the “pH 7 normalized stability” value in series [1] is “A (>90% normalised stability)”. Also, the solubility (commonly the dissolved amount per volume that the medium holds) in series [2] (100 mM acetate buffer pH 4.0, ambient temperature, read-out: Solubility Acetate buffer pH 4) was below 1000 µg/mL; in series [2] (100 mM acetate buffer pH 5.0, ambient temperature, read-out: Solubility Acetate buffer pH 5) it was below 1000 µg/mL; in series [2] (100 mM histidine buffer pH 6.0, ambient temperature, read-out: Solubility Histidine buffer pH 6), at least 1000 µg/mL; in series [2] (100 mM histidine buffer pH 7.0, ambient temperature, read-out: Solubility Histidine buffer pH 7), at least 1000 µg/mL; in series [2] (100 mM phosphate buffer pH 6.0, ambient temperature, read-out: Solubility Phosphate buffer pH 6) it was at least 1000 µg/mL; in series [2] (100 mM phosphate buffer pH 7.0, ambient temperature, read-out: Solubility Phosphate buffer pH 7), at least 1000 µg/mL. In series [2] (100 mM phosphate buffer pH 7.5, ambient temperature, read-out: Solubility Phosphate buffer pH 7.5), the solubility was at least 1000 µg/mL.
For `CCCCCCCCCCCCCCCC(=O)NCCC(=O)NCCCC[C@H](NC(=O)[C@H](CC(=O)O)NC(=O)[C@H](CC(C)C)NC(=O)[C@@H](NC(=O)[C@@H](NC(=O)[C@H](C)NC(=O)[C@H](CC(C)C)NC(=O)[C@H](CCC(=O)O)NC(=O)[C@H](CO)NC(=O)[C@@H](NC(=O)[C@H](Cc1ccccc1)NC(=O)[C@H](CO)NC(=O)CNC(=O)[C@H](CCC(=O)O)NC(=O)C(C)(C)NC(=O)[C@@H](N)Cc1c[nH]cn1)[C@@H](C)O)[C@@H](C)O)[C@@H](C)CC)C(=O)N[C@@H](CCC(N)=O)C(=O)N[C@@H](C)C(=O)N[C@@H](C)C(=O)N[C@@H](CCCNC(=N)N)C(=O)N[C@@H](CC(=O)O)C(=O)N[C@@H](Cc1ccccc1)C(=O)N[C@H](C(=O)N[C@@H](C)C(=O)N[C@@H](Cc1c[nH]c2ccccc12)C(=O)N[C@@H](CC(C)C)C(=O)N[C@@H](CCC(N)=O)C(=O)N[C@@H](CCC(N)=O)C(=O)N[C@@H](Cc1c[nH]cn1)C(=O)N[C@@H](CCCCN)C(=O)N[C@H](C(=O)N[C@H](C(=O)N[C@@H](CC(=O)O)C(=O)O)[C@@H](C)O)[C@@H](C)CC)[C@@H](C)CC` [Compound 32] (HELM PEPTIDE1{H.[Aib].E.G.S.F.T.S.E.L.A.T.I.L.D.K.Q.A.A.R.D.F.I.A.W.L.Q.Q.H.K.I.T.D}|PEPTIDE2{[CCCCCCCCCCCCCCCC(=O)[*:2]].[bAla]}$PEPTIDE1,PEPTIDE2,16:R3-2:R2$$$V2.0), the “pH 7 normalized stability” value in series [1] is given as “A (>90% normalised stability)”.
`CC[C@H](C)[C@H](NC(=O)[C@H](CC(C)C)NC(=O)[C@H](Cc1c[nH]c2ccccc12)NC(=O)[C@H](C)NC(=O)[C@@H](NC(=O)[C@H](Cc1ccccc1)NC(=O)[C@H](CC(=O)O)NC(=O)[C@H](CCCNC(=N)N)NC(=O)[C@H](C)NC(=O)[C@H](C)NC(=O)[C@H](CC(C)C)NC(=O)[C@H](CCCCNC(=O)CC[C@H](NC(=O)CCCCCCCCCCCCCCCCC(=O)O)C(=O)O)NC(=O)[C@H](CC(=O)O)NC(=O)[C@H](CC(C)C)NC(=O)[C@@H](NC(=O)[C@@H](NC(=O)[C@H](C)NC(=O)[C@H](CC(C)C)NC(=O)[C@H](CCC(=O)O)NC(=O)[C@H](CO)NC(=O)[C@@H](NC(=O)[C@H](Cc1ccccc1)NC(=O)[C@H](CO)NC(=O)CNC(=O)[C@H](CCC(=O)O)NC(=O)C(C)(C)NC(=O)[C@@H](N)Cc1c[nH]cn1)[C@@H](C)O)[C@@H](C)O)[C@@H](C)CC)[C@@H](C)CC)C(=O)N[C@@H](C)C(=O)N[C@@H](Cc1c[nH]cn1)C(=O)N[C@@H](CCCCN)C(=O)N[C@H](C(=O)N[C@H](C(=O)N[C@@H](CC(=O)O)C(=O)O)[C@@H](C)O)[C@@H](C)CC` [Compound 14] (HELM PEPTIDE1{H.[Aib].E.G.S.F.T.S.E.L.A.T.I.L.D.K.L.A.A.R.D.F.I.A.W.L.I.A.H.K.I.T.D}|PEPTIDE2{[O=C(O)CCCCCCCCCCCCCCCCC(=O)[*:2]].[gGlu]}$PEPTIDE1,PEPTIDE2,16:R3-2:R2$$$V2.0): the “pH 7 normalized stability” value in series [1] is “A (>90% normalised stability)”.
Same read-out and setting: then `CC[C@H](C)[C@H](NC(=O)[C@H](Cc1ccccc1)NC(=O)[C@H](CC(=O)O)NC(=O)[C@H](CCCNC(=N)N)NC(=O)[C@H](C)NC(=O)[C@H](C)NC(=O)[C@H](CCC(N)=O)NC(=O)[C@H](CCCCNC(=O)COCCOCCNC(=O)CC[C@H](NC(=O)CCCCCCCCCCCCCCCCC(=O)O)C(=O)O)NC(=O)[C@H](CC(=O)O)NC(=O)[C@H](CC(C)C)NC(=O)[C@@H](NC(=O)[C@@H](NC(=O)[C@H](C)NC(=O)[C@H](CC(C)C)NC(=O)[C@H](CCC(=O)O)NC(=O)[C@H](CO)NC(=O)[C@@H](NC(=O)[C@H](Cc1ccccc1)NC(=O)[C@H](CO)NC(=O)CNC(=O)[C@H](CCC(=O)O)NC(=O)C(C)(C)NC(=O)[C@@H](N)Cc1c[nH]cn1)[C@@H](C)O)[C@@H](C)O)[C@@H](C)CC)C(=O)N[C@@H](C)C(=O)N[C@@H](Cc1c[nH]c2ccccc12)C(=O)N[C@@H](CC(C)C)C(=O)N[C@@H](Cc1ccc(O)cc1)C(=O)N[C@@H](CCC(N)=O)C(=O)N[C@@H](Cc1c[nH]cn1)C(=O)N[C@@H](CCCCN)C(=O)N[C@H](C(=O)N[C@H](C(=O)N[C@@H](CC(=O)O)C(=O)O)[C@@H](C)O)[C@@H](C)CC` [Compound 33] (HELM PEPTIDE1{H.[Aib].E.G.S.F.T.S.E.L.A.T.I.L.D.K.Q.A.A.R.D.F.I.A.W.L.Y.Q.H.K.I.T.D}|PEPTIDE2{[O=C(O)CCCCCCCCCCCCCCCCC(=O)[*:2]].[gGlu].[O=C(COCCOCCN[*:1])[*:2]]}$PEPTIDE1,PEPTIDE2,16:R3-3:R2$$$V2.0), with “A (>90% normalised stability)”; and `CC[C@H](C)[C@H](NC(=O)[C@H](CC(C)C)NC(=O)[C@H](Cc1c[nH]c2ccccc12)NC(=O)[C@H](C)NC(=O)[C@@H](NC(=O)[C@H](Cc1ccccc1)NC(=O)[C@H](CC(=O)O)NC(=O)[C@H](CCCNC(=N)N)NC(=O)[C@H](C)NC(=O)[C@H](C)NC(=O)[C@H](CCC(N)=O)NC(=O)[C@H](CCCCNC(=O)COCCOCCNC(=O)[C@H](CCCCN)NC(=O)[C@H](CCC(=O)O)NC(=O)[C@H](CCCCN)NC(=O)CC[C@H](NC(=O)CCCCCCCCCCCCCCCCCCC(=O)O)C(=O)O)NC(=O)[C@H](CC(=O)O)NC(=O)[C@H](CC(C)C)NC(=O)[C@@H](NC(=O)[C@@H](NC(=O)[C@H](C)NC(=O)[C@H](CC(C)C)NC(=O)[C@H](CCC(=O)O)NC(=O)[C@H](CO)NC(=O)[C@@H](NC(=O)[C@H](Cc1ccccc1)NC(=O)[C@H](CO)NC(=O)CNC(=O)[C@H](CCC(=O)O)NC(=O)C(C)(C)NC(=O)[C@@H](N)Cc1c[nH]cn1)[C@@H](C)O)[C@@H](C)O)[C@@H](C)CC)[C@@H](C)CC)C(=O)N[C@@H](C)C(=O)N[C@@H](Cc1c[nH]cn1)C(=O)N[C@@H](CCCCN)C(=O)N[C@H](C(=O)N[C@H](C(=O)N[C@@H](CC(=O)O)C(=O)O)[C@@H](C)O)[C@@H](C)CC` [Compound 58] (HELM PEPTIDE1{H.[Aib].E.G.S.F.T.S.E.L.A.T.I.L.D.K.Q.A.A.R.D.F.I.A.W.L.I.A.H.K.I.T.D}|PEPTIDE2{[O=C(O)CCCCCCCCCCCCCCCCCCC(=O)[*:2]].[gGlu].K.E.K.[O=C(COCCOCCN[*:1])[*:2]]}$PEPTIDE1,PEPTIDE2,16:R3-6:R2$$$V2.0), with “A (>90% normalised stability)”.
